Measured values taken from patent US20160214956A1, “NOVEL SOLUBLE GUANYLATE CYCLASE ACTIVATORS AND THEIR USE” (GLAXOSMITHKLINE INTELLECTUAL PROPERTY DEVELOPMENT LIMITED, priority 2013, published 2016).

Target: T1, human sGC (Homo sapiens, UniProt Q02153)
T1 sequence (Q02153 1-619): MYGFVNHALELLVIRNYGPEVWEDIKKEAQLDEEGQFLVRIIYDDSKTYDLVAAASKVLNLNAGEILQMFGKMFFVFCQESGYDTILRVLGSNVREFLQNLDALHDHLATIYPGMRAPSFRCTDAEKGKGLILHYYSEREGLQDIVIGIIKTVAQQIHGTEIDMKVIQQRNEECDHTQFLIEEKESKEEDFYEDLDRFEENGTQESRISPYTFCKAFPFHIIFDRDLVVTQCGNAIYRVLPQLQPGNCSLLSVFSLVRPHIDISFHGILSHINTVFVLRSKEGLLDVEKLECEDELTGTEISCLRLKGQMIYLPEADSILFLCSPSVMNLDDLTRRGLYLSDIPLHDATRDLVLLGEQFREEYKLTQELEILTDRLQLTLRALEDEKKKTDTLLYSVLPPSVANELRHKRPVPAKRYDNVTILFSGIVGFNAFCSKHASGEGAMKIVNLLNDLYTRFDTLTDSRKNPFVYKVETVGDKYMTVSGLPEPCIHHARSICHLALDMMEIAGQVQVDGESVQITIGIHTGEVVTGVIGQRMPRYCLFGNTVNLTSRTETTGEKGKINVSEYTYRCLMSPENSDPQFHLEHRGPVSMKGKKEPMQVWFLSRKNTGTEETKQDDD
T1 sequence (Q02108 1-690 partner): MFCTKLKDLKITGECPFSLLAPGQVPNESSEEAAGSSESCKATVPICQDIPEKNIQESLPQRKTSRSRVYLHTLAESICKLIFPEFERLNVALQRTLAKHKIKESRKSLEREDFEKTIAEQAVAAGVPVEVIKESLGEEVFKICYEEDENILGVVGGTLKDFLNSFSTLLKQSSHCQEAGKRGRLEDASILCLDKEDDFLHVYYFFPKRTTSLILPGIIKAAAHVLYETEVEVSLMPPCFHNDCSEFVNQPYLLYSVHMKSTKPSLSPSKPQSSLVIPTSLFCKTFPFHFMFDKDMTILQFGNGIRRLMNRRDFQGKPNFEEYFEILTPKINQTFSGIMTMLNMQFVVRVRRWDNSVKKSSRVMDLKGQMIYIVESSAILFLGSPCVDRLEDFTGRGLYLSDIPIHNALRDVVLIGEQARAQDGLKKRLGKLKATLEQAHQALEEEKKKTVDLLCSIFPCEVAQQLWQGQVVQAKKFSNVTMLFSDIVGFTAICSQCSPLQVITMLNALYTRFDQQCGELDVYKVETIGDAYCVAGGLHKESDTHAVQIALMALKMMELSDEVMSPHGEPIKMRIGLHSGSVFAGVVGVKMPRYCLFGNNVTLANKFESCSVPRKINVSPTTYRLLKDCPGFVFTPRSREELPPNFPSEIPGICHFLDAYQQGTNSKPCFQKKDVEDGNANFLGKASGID
Assay: sGC enzyme assay, fluorescence polarisation of labelled cGMP
Type: biochemical
Settings: human sGC 1 nM, FP assay; concentration able to increase by 5-fold basal cGMP
Protocol: The activity of soluble guanylate cyclase (sGC) was tested in an assay based on measuring the fluorescent polarisation (FP) signal of fluorescently labelled cGMP. FP increased on interaction with an anti-cGMP antibody as the motility of the molecule was reduced. Newly produced cGMP displaced the interaction giving rise to a decrease in polarisation and FP signal which was equated to enzyme activity. Compounds were incubated with human sGC, anti-cGMP antibody, the GTP substrate and fluorescently labelled cGMP. After a period of one hour the assay was stopped with the addition of EDTA and after a further hour the assay was read.
Human sGC was thawed and resuspended in assay buffer (100 mM TRIS, 10 mM MgCl2, 0.2 mM Tween 20, pH7.4, containing 1:100 dilution of sheep anti-cGMP) to give final concentration of 1 nM in the well. A substrate solution was prepared containing GTP and 8-fluo-cGMP in de-ionized water to a final concentration of 25 μM and 50 nM respectively. Assay plates containing 5 μL of various test compounds and of a standard agonist (50 μM-50 nM) in 1% DMSO as 6 point, four fold dilutions across a 96 well plate were used in the assay. The plate also contained 6 wells of DMSO (1%) to produce high control and a cGMP standard curve (14 nM to 10 μM) to convert FP data to cGMP concentration. 25 μL of enzyme mix and 20 μl of substrate mix described above were added to each well of the plate. Samples were mixed on an orbital shaker and then incubated at room temperature for 1 hour. After this incubation period 5 μl of 0.5M EDTA was added to all wells and the plates were incubated for a further hour at room temperature prior to reading the FP signal in an appropriate reader. For data handling FP data were converted to cGMP concentrations and then fitted using ActivityBase software. The activity of a test compound was determined as the pEC500 value which is the concentration able to increase by 5-fold basal cGMP.

SMILES | sGC pEC500
Cc1cc(OCCCC(F)(F)F)ccc1COc1ccccc1-c1cccc(-n2ncc(C(=O)O)c2C(F)(F)F)n1 [Example 11, 1-(6-(2-((2-methyl-4-(4,4,4-trifluorobutoxy)benzyl)oxy)phenyl)pyridin-2-yl)-5-(trifluoromethyl)-1H-pyrazole-4-carboxylic acid] | 7.47
Cc1cc(OCCCC(F)(F)F)ccc1CCc1ccccc1-c1cccc(-n2ncc(C(=O)O)c2C(F)(F)F)n1 [Example 1, 1-(6-(2-(2-methyl-4-(4,4,4-trifluorobutoxy)phenethyl)phenyl)pyridin-2-yl)-5-(trifluoromethyl)-1H-pyrazole-4-carboxylic acid] | 6.95
Cc1cc(OCCCn2ccc(C(F)(F)F)n2)ccc1CCc1ccccc1-c1cccc(-n2ncc(C(=O)O)c2C(F)(F)F)n1 [Example 3, 1-(6-(2-(2-methyl-4-(3-(3-(trifluoromethyl)-1H-pyrazol-1-yl)propoxy)phenethyl)phenyl)pyridin-2-yl)-5-(trifluoromethyl)-1H-pyrazole-4-carboxylic acid] | 7.88
O=C(O)c1cnn(-c2cccc(-c3ccccc3OCc3ccc(OCCCC(F)(F)F)cc3F)n2)c1C(F)(F)F [Example 5, 1-(6-(2-((2-fluoro-4-(4,4,4-trifluorobutoxy)benzyl)oxy)phenyl)pyridin-2-yl)-5-(trifluoromethyl)-1H-pyrazole-4-carboxylic acid] | 6.88

Results, then the molecule that gave them:

sGC pEC500 | SMILES
7.4 | COCCCOc1ccc(COc2ccccc2-c2cccc(-n3ncc(C(=O)O)c3C(F)(F)F)n2)c(F)c1 [Example 6, 1-(6-(2-((2-fluoro-4-(3-methoxypropoxy)benzyl)oxy)phenyl)pyridin-2-yl)-5-(trifluoromethyl)-1H-pyrazole-4-carboxylic acid]
7.79 | COCCCOc1ccc(COc2ccccc2-c2cccc(-n3ncc(C(=O)O)c3C(F)(F)F)n2)c(C)c1 [Example 10, 1-(6-(2-((4-(3-methoxypropoxy)-2-methylbenzyl)oxy)phenyl)pyridin-2-yl)-5-(trifluoromethyl)-1H-pyrazole-4-carboxylic acid]
7.73 | Cc1cc(OCCCC#N)ccc1COc1ccccc1-c1cccc(-n2ncc(C(=O)O)c2C(F)(F)F)n1 [Example 9, 1-(6-(2-((4-(3-cyanopropoxy)-2-methylbenzyl)oxy)phenyl)pyridin-2-yl)-5-(trifluoromethyl)-1H-pyrazole-4-carboxylic acid]
